Here are results for seven molecules from ChEMBL document CHEMBL4002626, “Identification of a selective inhibitor of transforming growth factor β-activated kinase 1 by biosensor-based screening of focused libraries” (Bioorg Med Chem Lett, 2017).

The target in series [1] is T1, Mitogen-activated protein kinase kinase kinase 7 (Homo sapiens, UniProt O43318).
T1 sequence (O43318 whole entry): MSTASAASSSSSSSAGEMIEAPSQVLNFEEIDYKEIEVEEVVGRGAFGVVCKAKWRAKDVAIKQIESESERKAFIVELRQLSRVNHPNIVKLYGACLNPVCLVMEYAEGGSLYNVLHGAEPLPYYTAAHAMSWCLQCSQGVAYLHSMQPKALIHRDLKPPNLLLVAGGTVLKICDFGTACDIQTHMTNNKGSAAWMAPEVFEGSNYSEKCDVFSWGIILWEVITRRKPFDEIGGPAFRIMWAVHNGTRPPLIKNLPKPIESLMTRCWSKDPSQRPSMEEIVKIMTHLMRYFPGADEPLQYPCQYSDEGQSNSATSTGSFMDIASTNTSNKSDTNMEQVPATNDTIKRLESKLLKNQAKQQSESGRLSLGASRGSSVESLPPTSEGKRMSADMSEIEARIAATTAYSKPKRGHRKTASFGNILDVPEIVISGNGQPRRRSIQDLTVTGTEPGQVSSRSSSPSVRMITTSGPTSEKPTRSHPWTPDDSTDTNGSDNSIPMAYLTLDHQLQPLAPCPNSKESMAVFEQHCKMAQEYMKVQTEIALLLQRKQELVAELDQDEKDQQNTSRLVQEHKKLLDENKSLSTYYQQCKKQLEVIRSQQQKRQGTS
In words: Binding affinity to recombinant human biotinylated N-terminal GST-tagged autophosphorylated TAK1 (1 to 303 residues) fused with TAB1 (437 to 504 residues) expressed in baculovirus infected sf9 cells by SPR assay. In general terms: In SPR one partner is held on a chip, and binding of the other changes the refractive index at the surface.

Series [2] has as its target T1, Mitogen-activated protein kinase kinase kinase 7. In words: Binding affinity to recombinant human biotinylated N-terminal GST-tagged non-autophosphorylated TAK1 (1 to 303 residues) fused with TAB1 (437 to 504 residues) expressed in baculovirus infected sf9 cells by SPR assay.
The nature of series [3]: Solubility of the compound in 50 mM phosphate buffer at pH 6.5 after 24 hrs by HPLC-UV spectrophotometric assay. The class given is physicochemical.
Series [4] has as its target BMP-2-inducible protein kinase (Homo sapiens) (UniProt Q9NSY1). In words: Inhibition of human BIKE (S34 to N329 residues) expressed in bacterial expression system at 1 uM by KINOMEscan assay.
Series [5] in a line: Solubility of the compound in fasted state simulated intestinal fluid at pH 6.5 after 24 hrs by HPLC-UV spectrophotometric assay. The class given is physicochemical.
For series [6], the target named is T2, Mitogen-activated protein kinase kinase kinase 7 (Homo sapiens) (UniProt O43318).
T2 sequence (whole entry): T1 sequence (O43318 whole entry)
In words: Binding affinity to recombinant human biotinylated N-terminal GST-tagged TAK1 (1 to 303 residues) fused with TAB1 (437 to 504 residues) expressed in baculovirus infected sf9 cells at 1 uM in presence of ATP by SPR assay.

Series [7] deals with Epidermal growth factor receptor (Homo sapiens, UniProt P00533). In words: Inhibition of recombinant human N-terminal GST-tagged EGFR cytoplasmic domain (669 to 1210 residues) expressed in baculovirus expression system.
Series [8] has as its target Mast/stem cell growth factor receptor Kit (Homo sapiens, UniProt P10721). In words: Inhibition of recombinant human N-terminal GST-tagged KIT cytoplasmic domain (544 to 976 residues) expressed in baculovirus expression system.
Series [9] can be described thus: Inhibition of PDGFR (unknown origin). The arrangement: species or system Homo sapiens.
In series [10] the target is Receptor-type tyrosine-protein kinase FLT3 (Homo sapiens, UniProt P36888). In words: Inhibition of recombinant human N-terminal GST-tagged FLT3 cytoplasmic domain (564 to 993 residues) expressed in baculovirus expression system.
Receptor-type tyrosine-protein kinase FLT3, sequence (P36888 whole entry, the tested form may be a part): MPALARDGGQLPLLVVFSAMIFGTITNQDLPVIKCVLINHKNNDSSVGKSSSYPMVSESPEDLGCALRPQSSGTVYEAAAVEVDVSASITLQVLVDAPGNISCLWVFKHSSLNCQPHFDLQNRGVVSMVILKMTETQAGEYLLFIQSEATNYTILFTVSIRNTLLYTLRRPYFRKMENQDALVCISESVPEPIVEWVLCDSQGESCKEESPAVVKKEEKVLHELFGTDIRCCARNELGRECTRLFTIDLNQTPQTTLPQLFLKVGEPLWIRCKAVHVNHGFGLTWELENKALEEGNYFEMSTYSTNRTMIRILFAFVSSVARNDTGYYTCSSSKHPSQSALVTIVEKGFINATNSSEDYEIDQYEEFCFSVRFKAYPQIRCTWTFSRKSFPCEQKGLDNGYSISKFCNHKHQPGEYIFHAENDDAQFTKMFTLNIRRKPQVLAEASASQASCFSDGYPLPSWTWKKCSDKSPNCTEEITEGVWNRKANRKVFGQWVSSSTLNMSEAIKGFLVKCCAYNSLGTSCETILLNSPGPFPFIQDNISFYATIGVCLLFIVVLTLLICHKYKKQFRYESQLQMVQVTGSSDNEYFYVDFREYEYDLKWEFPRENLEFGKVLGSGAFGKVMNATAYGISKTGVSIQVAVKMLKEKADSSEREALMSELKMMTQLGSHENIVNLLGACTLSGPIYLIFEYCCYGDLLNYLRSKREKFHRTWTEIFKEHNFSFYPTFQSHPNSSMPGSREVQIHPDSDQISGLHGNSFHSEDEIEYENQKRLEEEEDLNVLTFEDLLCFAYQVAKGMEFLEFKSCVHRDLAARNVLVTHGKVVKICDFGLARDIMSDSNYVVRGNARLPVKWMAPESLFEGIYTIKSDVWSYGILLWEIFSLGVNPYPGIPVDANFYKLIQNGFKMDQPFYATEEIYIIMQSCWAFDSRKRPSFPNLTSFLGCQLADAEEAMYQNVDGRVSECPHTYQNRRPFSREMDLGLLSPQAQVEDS
For series [11], the target named is Fibroblast growth factor receptor 2 (Homo sapiens, UniProt P21802). In words: Inhibition of recombinant human N-terminal GST-tagged FGFR2 cytoplasmic domain (399 to 821 residues) expressed in baculovirus expression system.
The target of series [12] is Vascular endothelial growth factor receptor 2 (Homo sapiens, UniProt P35968). In words: Inhibition of recombinant human N-terminal GST-tagged KDR cytoplasmic domain (790 to 1356 residues) expressed in baculovirus expression system.
Series [13] has as its target Tyrosine-protein kinase receptor UFO (Homo sapiens, UniProt P30530). In words: Inhibition of recombinant human N-terminal GST-tagged AXL cytoplasmic domain (464 to 885 residues) expressed in baculovirus expression system.
The target of series [14] is Macrophage-stimulating protein receptor (Homo sapiens, UniProt Q04912). In words: Inhibition of recombinant human N-terminal GST-tagged RON cytoplasmic domain (979 to 1400 residues) expressed in baculovirus expression system.
Series [15] deals with Hepatocyte growth factor receptor (Homo sapiens, UniProt P08581). In words: Inhibition of recombinant human N-terminal GST-tagged MET cytoplasmic domain (956 to 1390 residues) expressed in baculovirus expression system.
For series [16], the target named is Epithelial discoidin domain-containing receptor 1 (Homo sapiens, UniProt Q08345). In words: Inhibition of recombinant human N-terminal GST-tagged DDR1 cytoplasmic domain (444 to 876 residues) expressed in baculovirus expression system.
Series [17] has as its target Insulin-like growth factor 1 receptor (Homo sapiens, UniProt P08069). In words: Inhibition of recombinant human N-terminal GST-tagged IGF1R cytoplasmic domain (959 to 1367 residues) expressed in baculovirus expression system.
In a further series the target is Insulin receptor (Homo sapiens, UniProt P06213). In words: Inhibition of recombinant human N-terminal GST-tagged INSR cytoplasmic domain (1005 to 1310 residues) expressed in baculovirus expression system.
Insulin receptor, sequence (P06213 28-758 limits assumed): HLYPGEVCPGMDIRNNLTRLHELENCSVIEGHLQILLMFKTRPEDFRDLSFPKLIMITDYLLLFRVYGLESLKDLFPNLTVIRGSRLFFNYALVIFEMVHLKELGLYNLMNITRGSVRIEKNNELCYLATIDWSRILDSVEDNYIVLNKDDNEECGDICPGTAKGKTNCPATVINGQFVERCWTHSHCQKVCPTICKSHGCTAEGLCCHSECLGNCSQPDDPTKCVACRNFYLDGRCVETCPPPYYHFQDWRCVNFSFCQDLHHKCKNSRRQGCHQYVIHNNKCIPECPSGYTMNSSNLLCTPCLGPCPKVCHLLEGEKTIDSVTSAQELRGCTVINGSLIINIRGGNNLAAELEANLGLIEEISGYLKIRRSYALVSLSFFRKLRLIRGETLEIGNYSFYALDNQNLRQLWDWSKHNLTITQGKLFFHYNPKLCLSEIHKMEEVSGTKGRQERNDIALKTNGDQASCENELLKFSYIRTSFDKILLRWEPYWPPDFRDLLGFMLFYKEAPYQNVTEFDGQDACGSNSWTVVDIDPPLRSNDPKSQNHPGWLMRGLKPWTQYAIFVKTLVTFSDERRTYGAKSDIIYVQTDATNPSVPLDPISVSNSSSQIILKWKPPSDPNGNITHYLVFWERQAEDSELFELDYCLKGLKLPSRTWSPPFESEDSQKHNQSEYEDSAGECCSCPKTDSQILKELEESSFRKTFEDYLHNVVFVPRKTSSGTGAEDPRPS
Insulin receptor, sequence (P06213 763-1382 limits assumed): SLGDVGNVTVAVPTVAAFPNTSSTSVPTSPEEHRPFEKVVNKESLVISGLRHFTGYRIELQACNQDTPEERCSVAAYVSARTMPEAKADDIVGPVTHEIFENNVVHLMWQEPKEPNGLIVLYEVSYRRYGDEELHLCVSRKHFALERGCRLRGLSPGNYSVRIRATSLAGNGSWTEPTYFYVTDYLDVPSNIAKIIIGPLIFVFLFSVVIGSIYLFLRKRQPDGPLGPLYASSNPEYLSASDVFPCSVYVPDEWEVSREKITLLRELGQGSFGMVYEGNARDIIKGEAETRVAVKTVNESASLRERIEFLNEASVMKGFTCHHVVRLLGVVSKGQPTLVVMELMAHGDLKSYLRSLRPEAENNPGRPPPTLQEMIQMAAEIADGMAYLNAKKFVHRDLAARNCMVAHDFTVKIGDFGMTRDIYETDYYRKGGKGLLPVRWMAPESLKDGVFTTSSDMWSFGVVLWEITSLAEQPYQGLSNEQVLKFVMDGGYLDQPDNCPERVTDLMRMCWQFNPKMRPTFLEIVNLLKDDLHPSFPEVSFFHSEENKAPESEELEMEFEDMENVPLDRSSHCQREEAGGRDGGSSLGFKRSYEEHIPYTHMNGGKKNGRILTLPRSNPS
Series [18] deals with Leukocyte tyrosine kinase receptor (Homo sapiens, UniProt P29376). In words: Inhibition of recombinant human N-terminal GST-tagged LTK cytoplasmic domain (498 to 796 residues) expressed in baculovirus expression system.
Another series has as its target Ephrin type-A receptor 2 (Homo sapiens, UniProt P29317). In words: Inhibition of recombinant human N-terminal GST-tagged EPHA2 cytoplasmic domain (572 to 976 residues) expressed in baculovirus expression system.
For another series, the target named is Focal adhesion kinase 1 (Homo sapiens, UniProt Q05397). In words: Inhibition of recombinant human N-terminal GST-tagged FAK cytoplasmic domain (376 to 1052 residues) expressed in baculovirus expression system.
The target of series [19] is Tyrosine-protein kinase Yes (Homo sapiens, UniProt P07947). In words: Inhibition of recombinant full length human N-terminal GST-tagged YES (1 to 543 residues) expressed in baculovirus expression system.
The target of series [20] is Proto-oncogene tyrosine-protein kinase Src (Homo sapiens, UniProt P12931). In words: Inhibition of recombinant full length human N-terminal GST-tagged SRC (1 to 536 residues) expressed in baculovirus expression system.
Series [21] deals with Tyrosine-protein kinase Fyn (Homo sapiens, UniProt P06241). In words: Inhibition of FYN (unknown origin).
In series [22] the target is Tyrosine-protein kinase Lyn (Homo sapiens, UniProt P07948). In words: Inhibition of LYN (unknown origin).
Series [23] concerns the target Tyrosine-protein kinase Lck (Homo sapiens, UniProt P06239). In words: Inhibition of recombinant full length human N-terminal GST-tagged LCK (1 to 509 residues) expressed in baculovirus expression system.
Series [24] deals with Protein-tyrosine kinase 6 (Homo sapiens, UniProt Q13882). In words: Inhibition of recombinant full length human N-terminal GST-tagged BRK (2 to 451 residues) expressed in baculovirus expression system.
Series [25] deals with Tyrosine-protein kinase ABL1 (Homo sapiens, UniProt P00519). In words: Inhibition of recombinant full length human N-terminal GST-tagged ABL (2 to 1130 residues) expressed in baculovirus expression system.
For series [26], the target named is RAF proto-oncogene serine/threonine-protein kinase (Homo sapiens, UniProt P04049). In words: Inhibition of recombinant human N-terminal GST-tagged RAF1 catalytic domain (306 to 648 residues) expressed in baculovirus expression system.
Series [27] addresses Dual specificity mitogen-activated protein kinase kinase 1 (Homo sapiens, UniProt Q02750). In words: Inhibition of MEK1 (unknown origin).
A short description of series [28]: Inhibition of PKA (unknown origin). The arrangement: species or system Homo sapiens.
Series [29] has as its target RAC-alpha serine/threonine-protein kinase (Homo sapiens, UniProt P31749). In words: Inhibition of recombinant human N-terminal GST-tagged AKT1 catalytic domain (104 to 480 residues) expressed in baculovirus expression system.
Series [30] deals with Cyclin-dependent kinase 1 (Homo sapiens, UniProt P06493). In words: Inhibition of CDK1 (unknown origin).
Cyclin-dependent kinase 1, sequence (P06493 whole entry): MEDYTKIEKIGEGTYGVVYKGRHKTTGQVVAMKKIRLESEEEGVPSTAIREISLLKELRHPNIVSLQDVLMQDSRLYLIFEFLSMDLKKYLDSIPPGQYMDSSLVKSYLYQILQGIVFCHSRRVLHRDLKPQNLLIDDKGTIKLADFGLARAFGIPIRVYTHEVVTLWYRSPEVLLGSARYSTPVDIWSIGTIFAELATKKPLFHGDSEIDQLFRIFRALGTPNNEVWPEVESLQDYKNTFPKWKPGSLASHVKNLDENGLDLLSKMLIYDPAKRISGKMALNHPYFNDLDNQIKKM
For series [31], the target named is Cyclin-dependent kinase 2 (Homo sapiens, UniProt P24941). In words: Inhibition of CDK2 (unknown origin).
The target of series [32] is Protein kinase C zeta type (Homo sapiens, UniProt Q05513). In words: Inhibition of recombinant full length human N-terminal GST-tagged PKCzeta (1 to 592 residues) expressed in baculovirus expression system.
The target in series [33] is Protein kinase C alpha type (Homo sapiens, UniProt P17252). In words: Inhibition of recombinant full length human N-terminal GST-tagged PKCalpha (1 to 351 residues) expressed in baculovirus expression system.
In series [34] the target is T3, Protein kinase C beta type (Homo sapiens, UniProt P05771). In words: Inhibition of recombinant full length human N-terminal GST-tagged PKCbeta1 (1 to 671 residues) expressed in baculovirus expression system.
T3 sequence (P05771 whole entry, the tested form may be a part): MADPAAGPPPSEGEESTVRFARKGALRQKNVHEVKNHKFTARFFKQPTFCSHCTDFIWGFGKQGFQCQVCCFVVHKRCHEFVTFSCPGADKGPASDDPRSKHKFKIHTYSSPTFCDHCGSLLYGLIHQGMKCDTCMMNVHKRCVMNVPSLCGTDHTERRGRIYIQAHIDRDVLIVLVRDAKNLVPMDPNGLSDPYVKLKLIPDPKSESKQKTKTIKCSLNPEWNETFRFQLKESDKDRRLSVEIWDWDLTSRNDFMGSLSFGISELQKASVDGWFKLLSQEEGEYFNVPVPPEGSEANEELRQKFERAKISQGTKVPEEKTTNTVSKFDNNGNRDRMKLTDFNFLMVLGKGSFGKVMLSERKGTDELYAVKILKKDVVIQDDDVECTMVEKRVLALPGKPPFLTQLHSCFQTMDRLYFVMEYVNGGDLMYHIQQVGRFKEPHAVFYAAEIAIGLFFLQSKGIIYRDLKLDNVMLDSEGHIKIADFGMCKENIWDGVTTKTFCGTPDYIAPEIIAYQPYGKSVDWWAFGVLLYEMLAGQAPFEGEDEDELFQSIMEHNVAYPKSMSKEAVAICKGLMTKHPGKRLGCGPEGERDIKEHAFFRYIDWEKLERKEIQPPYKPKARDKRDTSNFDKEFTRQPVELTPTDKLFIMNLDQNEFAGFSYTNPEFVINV
Series [35] addresses T3, Protein kinase C beta type. In words: Inhibition of recombinant full length human N-terminal GST-tagged PKCbeta2 (1 to 673 residues) expressed in baculovirus expression system.
Another series deals with Aurora kinase A (Homo sapiens, UniProt O14965). In words: Inhibition of recombinant full length human N-terminal GST-tagged Aurora kinase-A (1 to 403 residues) expressed in baculovirus expression system.
In series [36] the target is Mitogen-activated protein kinase 14 (Homo sapiens, UniProt Q16539). In words: Inhibition of recombinant human N-terminal GST-tagged p38-alpha (9 to 352 residues) expressed in Escherichia coli expression system.
Series [37] concerns the target T2, Mitogen-activated protein kinase kinase kinase 7 (Homo sapiens). In words: Binding affinity to TAK1 (unknown origin) at 5 uM using spin-labeled probe by 1H NMR method.
Series [38] shares this target. In words: Binding affinity to recombinant human biotinylated N-terminal GST-tagged TAK1 (1 to 303 residues) fused with TAB1 (437 to 504 residues) expressed in baculovirus infected sf9 cells at 250 uM in presence of adenosine by SPR assay.

The source made the active and inactive calls. The rule behind the calls is not given here. Some results are limits rather than exact numbers.

Insulin-like growth factor 1 receptor, sequence (P08069 31-736 limits assumed): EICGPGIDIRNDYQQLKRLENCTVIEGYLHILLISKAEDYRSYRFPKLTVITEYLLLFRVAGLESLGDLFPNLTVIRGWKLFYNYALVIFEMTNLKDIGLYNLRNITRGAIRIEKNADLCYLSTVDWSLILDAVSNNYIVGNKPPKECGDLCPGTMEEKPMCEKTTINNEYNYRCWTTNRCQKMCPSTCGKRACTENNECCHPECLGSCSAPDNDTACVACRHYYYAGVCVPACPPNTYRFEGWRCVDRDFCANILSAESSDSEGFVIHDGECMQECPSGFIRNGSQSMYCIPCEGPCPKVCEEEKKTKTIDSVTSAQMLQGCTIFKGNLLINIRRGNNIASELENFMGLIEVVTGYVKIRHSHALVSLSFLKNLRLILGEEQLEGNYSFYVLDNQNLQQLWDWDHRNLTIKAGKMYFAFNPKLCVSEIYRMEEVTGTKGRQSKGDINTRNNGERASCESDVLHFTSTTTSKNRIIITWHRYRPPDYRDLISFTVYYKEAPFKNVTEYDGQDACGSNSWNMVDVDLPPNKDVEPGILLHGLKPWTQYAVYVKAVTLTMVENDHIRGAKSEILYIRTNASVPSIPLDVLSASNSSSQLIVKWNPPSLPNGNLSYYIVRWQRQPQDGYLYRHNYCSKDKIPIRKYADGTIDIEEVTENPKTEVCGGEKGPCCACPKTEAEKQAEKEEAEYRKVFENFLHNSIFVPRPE
Insulin-like growth factor 1 receptor, sequence (P08069 741-1367 limits assumed): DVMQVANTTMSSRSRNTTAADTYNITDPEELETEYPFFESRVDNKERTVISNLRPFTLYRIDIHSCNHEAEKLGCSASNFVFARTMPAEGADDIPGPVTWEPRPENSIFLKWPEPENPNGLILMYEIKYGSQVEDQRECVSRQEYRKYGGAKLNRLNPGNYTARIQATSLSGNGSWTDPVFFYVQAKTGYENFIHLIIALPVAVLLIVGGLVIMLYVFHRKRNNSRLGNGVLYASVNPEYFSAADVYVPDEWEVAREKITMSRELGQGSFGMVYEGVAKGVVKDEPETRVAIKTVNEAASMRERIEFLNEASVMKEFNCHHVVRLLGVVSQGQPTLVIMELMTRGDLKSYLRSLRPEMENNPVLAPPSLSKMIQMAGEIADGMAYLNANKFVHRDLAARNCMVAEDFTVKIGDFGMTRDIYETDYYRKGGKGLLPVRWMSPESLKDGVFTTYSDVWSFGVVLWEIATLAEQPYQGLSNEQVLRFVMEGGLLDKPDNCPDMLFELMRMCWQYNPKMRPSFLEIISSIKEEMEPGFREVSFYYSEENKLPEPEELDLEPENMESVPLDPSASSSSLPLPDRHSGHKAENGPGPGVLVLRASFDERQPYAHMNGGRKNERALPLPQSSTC
Dual specificity mitogen-activated protein kinase kinase 1, sequence (Q02750 whole entry): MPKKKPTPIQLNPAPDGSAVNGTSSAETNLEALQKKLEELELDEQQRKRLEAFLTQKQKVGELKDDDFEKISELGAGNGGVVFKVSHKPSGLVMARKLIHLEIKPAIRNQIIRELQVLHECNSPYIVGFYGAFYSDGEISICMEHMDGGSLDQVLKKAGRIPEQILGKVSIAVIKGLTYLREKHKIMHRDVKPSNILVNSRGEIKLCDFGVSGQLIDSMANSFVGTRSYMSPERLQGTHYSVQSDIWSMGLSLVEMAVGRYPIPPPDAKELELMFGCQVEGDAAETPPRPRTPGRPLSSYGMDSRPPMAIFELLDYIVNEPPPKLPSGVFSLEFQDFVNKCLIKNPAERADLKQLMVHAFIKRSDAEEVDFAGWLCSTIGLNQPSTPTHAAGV

The Kd is the free concentration of one partner at which half of the binding sites on the other are occupied at equilibrium, for simple one-to-one binding. The solubility is how much of the substance goes into solution per volume. Low values mean a poorly soluble substance, high ones a readily soluble substance. Broadly, the IC50 is the point on the concentration scale where inhibition reaches its midpoint. Consider `COc1cc2ncccc2cc1NC(=O)c1csc2cncnc12`, for which the Kd in series [1] stood at 0.059 µM; in [2], 0.15 µM. In addition, the solubility at 24 h in series [3] and in series [5] was less than 3 µg/mL each time. For the same molecule, the inhibition result in [4] is “Active”. Besides, the result in [6] was Active. Moreover, the IC50 in series [7] was greater than 50 µM; in series [8], greater than 50 µM; in [9] it was greater than 50 µM; in [10] it was 0.056 µM; in series [11] it was greater than 50 µM; in [12] it was greater than 50 µM. Besides, the IC50 (in [13]; in series [14]; in series [15]; in [16]; in series [17]; on Insulin receptor) was greater than 50 µM in each case. The 50% inhibitory concentration (IC50) (in series [18]; on Ephrin type-A receptor 2; on Focal adhesion kinase 1; in series [19]; in series [20]; in series [21]) was greater than 50 µM each time. Moreover, the IC50 in series [22], in [23], in series [24], in series [25], in series [26] and in [27] was greater than 50 µM each time. The IC50 in series [28], in series [29], in [30], in [31], in series [32] and in series [33] was greater than 50 µM in each case. Further, the IC50 in series [34] is greater than 50 µM; in series [35], greater than 50 µM; on Aurora kinase A, 42 µM; in [36], greater than 50 µM.

Regarding `Nc1ncnc2c1ncn2[C@@H]1O[C@H](COP(=O)(O)OP(=O)(O)OP(=O)(O)O)[C@@H](O)[C@H]1O` [ADENOSINE TRIPHOSPHATE], the Kd in series [1] worked out at 2.8 µM.

Take `CN1CCN(c2cccc3cc(NC(=O)Nc4ccc(Oc5ccnc6[nH]ccc56)cc4)ccc23)CC1`: the Kd in [1] is 0.012 µM.

As to `Nc1ncnc2c1ncn2[C@@H]1O[C@H](COP(=O)(O)OP(=O)(O)O)[C@@H](O)[C@H]1O` [ADENOSINE DIPHOSPHATE], the Kd in series [1] stood at 4.1 µM; in series [2], 63 µM.

As to `Oc1cnnc(SCc2ccc(Br)cc2)n1`, the result in series [37] and in series [38] was Active.

`Nc1ncnc2c1ncn2[C@@H]1O[C@H](COP(=O)(O)O)[C@@H](O)[C@H]1O` [ADENOSINE PHOSPHATE]: the Kd in series [1] was determined as 120 µM; in series [2] it was 370 µM.

Consider `Nc1ncnc2c1ncn2[C@@H]1O[C@H](CO)[C@@H](O)[C@H]1O` [ADENOSINE], for which the Kd in series [1] amounted to 4.4 µM; in series [2] it was 34 µM.
